≈ marks a conversion by molar mass, not a printed value.
Key:
[1] = system: Enterobacteriaceae; assay: Antibacterial activity against ciprofloxacin-resistant Enterobacteriaceae clinical isolates by broth microdilution method; type: functional
[2] = system: Enterobacteriaceae; assay: Antibacterial activity against extended spectrum beta-lactamase-producing Enterobacteriaceae clinical isolates by broth microdilution method; type: functional
[3] = system: Enterobacteriaceae; assay: Antibacterial activity against Enterobacteriaceae by broth microdilution method; type: functional
[4] = system: Enterobacteriaceae; assay: Antibacterial activity against Enterobacteriaceae clinical isolates isolated from patient with nosocomial pneumonia assessed as cure rate at test-of-cure visit by mMITT analysis; type: functional
[5] = system: Enterobacteriaceae; assay: Antibacterial activity against Enterobacteriaceae clinical isolates isolated from patient with complicated urinary tract infection assessed as cure rate at test-of-cure visit by mMITT analysis; type: functional, Urine
[6] = system: Enterobacteriaceae; assay: Antibacterial activity against ciprofloxacin-resistant Enterobacteriaceae clinical isolates isolated from patient with urinary tract infection assessed as cure rate at test-of-cure visit; type: functional, Urine
[7] = system: Enterobacteriaceae; assay: Antibacterial activity against Enterobacteriaceae clinical isolates isolated from patient with complicated urinary tract infection assessed as cure rate at test-of-cure visit; type: functional, Urine
[8] = system: Enterobacteriaceae; assay: Antibacterial activity against ciprofloxacin-resistant Enterobacteriaceae clinical isolates isolated from patient with complicated intra-abdominal infection assessed as cure rate at test-of-cure visit by mMITT analysis; type: functional
[9] = system: Enterobacteriaceae; assay: Antibacterial activity against Enterobacteriaceae clinical isolates isolated from patient with urinary tract infection assessed as cure rate at test-of-cure visit; type: functional, Urine
[10] = system: Enterobacteriaceae; assay: Antibacterial activity against Enterobacteriaceae clinical isolates isolated from patient with nosocomial pneumonia assessed as cure rate at test-of-cure visit; type: functional
[11] = system: Enterobacteriaceae; assay: Antibacterial activity against extended spectrum beta-lactamase-producing Enterobacteriaceae clinical isolates isolated from patient with complicated intra-abdominal infection assessed as cure rate at test-of-cure visit by mMITT analysis; type: functional
[12] = system: Enterobacteriaceae; assay: Antibacterial activity against ciprofloxacin-resistant Enterobacteriaceae clinical isolates isolated from patient with urinary tract infection assessed as cure rate at test-of-cure visit by mMITT analysis; type: functional, Urine
[13] = system: Enterobacteriaceae; assay: Antibacterial activity against Enterobacteriaceae clinical isolates isolated from patient with urinary tract infection assessed as cure rate at test-of-cure visit by mMITT analysis; type: functional, Urine
[14] = system: Enterobacteriaceae; assay: Antibacterial activity against ciprofloxacin-resistant Enterobacteriaceae clinical isolates isolated from patient with complicated intra-abdominal infection assessed as cure rate at test-of-cure visit; type: functional
[15] = system: Enterobacteriaceae; assay: Antibacterial activity against extended spectrum beta-lactamase-producing Enterobacteriaceae clinical isolates isolated from patient with nosocomial pneumonia assessed as cure rate at test-of-cure visit by mMITT analysis; type: functional
[16] = system: Enterobacteriaceae; assay: Antibacterial activity against extended spectrum beta-lactamase-producing Enterobacteriaceae clinical isolates isolated from patient with complicated urinary tract infection assessed as cure rate at test-of-cure visit; type: functional, Urine
[17] = system: Enterobacteriaceae; assay: Antibacterial activity against extended spectrum beta-lactamase-producing Enterobacteriaceae clinical isolates isolated from patient with complicated intra-abdominal infection assessed as cure rate at test-of-cure visit; type: functional
[18] = system: Klebsiella pneumoniae; assay: Antibacterial activity against […] Klebsiella pneumoniae by broth microdilution method; type: functional
[19] = system: Enterobacteriaceae; assay: Antibacterial activity against ciprofloxacin-resistant Enterobacteriaceae clinical isolates isolated from patient with complicated urinary tract infection assessed as cure rate at test-of-cure visit by mMITT analysis; type: functional, Urine
[20] = system: Enterobacteriaceae; assay: Antibacterial activity against extended spectrum beta-lactamase-producing Enterobacteriaceae clinical isolates isolated from patient with complicated urinary tract infection assessed as cure rate at test-of-cure visit by mMITT analysis; type: functional, Urine
[21] = system: Enterobacteriaceae; assay: Antibacterial activity against Enterobacteriaceae clinical isolates isolated from patient with complicated intra-abdominal infection assessed as cure rate at test-of-cure visit; type: functional
[22] = system: Enterobacteriaceae; assay: Antibacterial activity against extended spectrum beta-lactamase-producing Enterobacteriaceae clinical isolates isolated from patient with urinary tract infection assessed as cure rate at test-of-cure visit by mMITT analysis; type: functional, Urine
[23] = system: Enterobacteriaceae; assay: Antibacterial activity against Enterobacteriaceae clinical isolates isolated from patient with complicated intra-abdominal infection assessed as cure rate at test-of-cure visit by mMITT analysis; type: functional
[24] = system: Enterobacteriaceae; assay: Antibacterial activity against ciprofloxacin-resistant Enterobacteriaceae clinical isolates isolated from patient with nosocomial pneumonia assessed as cure rate at test-of-cure visit; type: functional
[25] = system: Enterobacteriaceae; assay: Antibacterial activity against extended spectrum beta-lactamase-producing Enterobacteriaceae clinical isolates isolated from patient with nosocomial pneumonia assessed as cure rate at test-of-cure visit; type: functional
[26] = system: Enterobacteriaceae; assay: Antibacterial activity against extended spectrum beta-lactamase-producing Enterobacteriaceae clinical isolates isolated from patient with urinary tract infection assessed as cure rate at test-of-cure visit; type: functional, Urine
[27] = system: Enterobacteriaceae; assay: Antibacterial activity against ciprofloxacin-resistant Enterobacteriaceae clinical isolates isolated from patient with nosocomial pneumonia assessed as cure rate at test-of-cure visit by mMITT analysis; type: functional
[28] = system: Enterobacteriaceae; assay: Antibacterial activity against ciprofloxacin-resistant Enterobacteriaceae clinical isolates isolated from patient with complicated urinary tract infection assessed as cure rate at test-of-cure visit; type: functional, Urine

For `NCC[C@H](O)C(=O)N[C@@H]1C[C@H](N)[C@@H](O[C@H]2O[C@H](CN)[C@@H](O)[C@H](O)[C@H]2O)[C@H](O)[C@H]1O[C@H]1O[C@H](CO)[C@@H](O)[C@H](N)[C@H]1O` [AMIKACIN], the MIC50 [1] was 4 µg/mL (≈ 6.83 µM), the MIC50 [2] was 8 µg/mL (≈ 13.7 µM) and the MIC90 [2] was over 64 µg/mL. It also gave an MIC50 [3] of 2 µg/mL (≈ 3.42 µM) and an MIC90 [3] of 8 µg/mL (≈ 13.7 µM).

For `CC(C)(O/N=C(\C(=O)N[C@@H]1C(=O)N2C(C(=O)[O-])=C(C[n+]3ccccc3)CS[C@H]12)c1csc(N)n1)C(=O)O` [CEFTAZIDIME], the MIC50 [1] was 1 µg/mL (≈ 1.83 µM), the MIC90 [1] was over 32 µg/mL and the MIC50 [2] was 32 µg/mL (≈ 58.5 µM). For the same compound, the MIC90 [2] was over 32 µg/mL, the MIC50 [3] was 0.12 µg/mL (≈ 0.22 µM) and the MIC90 [3] was 0.5 µg/mL (≈ 0.915 µM).

`C[C@@H](O)[C@H]1C(=O)N2C(C(=O)O)=C(S[C@@H]3CN[C@H](CNS(N)(=O)=O)C3)[C@H](C)[C@H]12` [DORIPENEM] gave an Activity [4] of 59.6%, an Activity [5] of 74.3% and an Activity [6] of 68.1%. It also gave an MIC50 [1] of 0.03 µg/mL (≈ 0.0713 µM), an MIC90 [1] of 0.5 µg/mL (≈ 1.19 µM) and an Activity [7] of 83.5%. It also gave an Activity [8] of 83.3%, an Activity [9] of 82.3% and an Activity [10] of 69.1%. For the same compound, the Activity [11] was 75%, the Activity [12] was 61.9% and the Activity [13] was 73.6%. For the same compound, the Activity [14] was 82.4%, the MIC50 [2] was 0.06 µg/mL (≈ 0.143 µM) and the MIC90 [2] was 0.25 µg/mL (≈ 0.595 µM). For the same compound, the Activity [15] was 64.3%, the Activity [16] was 60% and the Activity [17] was 71.4%. For the same compound, the MIC50 [18] was at most 0.03 µg/mL, the MIC90 [18] was 0.12 µg/mL (≈ 0.285 µM) and the Activity [19] was 53.3%. It also gave an Activity [20] of 50%, an Activity [21] of 84.4% and an Activity [22] of 66.7%. The Activity [23] was 77.3%, the Activity [24] was 70% and the Activity [25] was 75%. The Activity [26] was 72.7%.

In the case of `C[C@@H](O)[C@H]1C(=O)N2C(C(=O)O)=C(S[C@@H]3CN[C@H](C(=O)Nc4cccc(C(=O)O)c4)C3)[C@H](C)[C@H]12` [ERTAPENEM], the MIC50 [1] is reported as at most 0.03 µg/mL, the MIC90 [1] is reported as 4 µg/mL (≈ 8.41 µM) and the MIC50 [2] is reported as 0.12 µg/mL (≈ 0.252 µM). The MIC90 [2] was 1 µg/mL (≈ 2.1 µM), the MIC50 [18] was at most 0.03 µg/mL and the MIC90 [18] was at most 0.03 µg/mL.

With `C[C@@H](O)[C@H]1C(=O)N2C(C(=O)O)=C(SCCNC=N)C[C@H]12` [IMIPENEM ANHYDROUS] the Activity [4] was 61.4%, the MIC50 [1] was 0.12 µg/mL (≈ 0.401 µM) and the MIC90 [1] was 1 µg/mL (≈ 3.34 µM). The Activity [10] was 64.4%, the MIC50 [2] was 0.12 µg/mL (≈ 0.401 µM) and the MIC90 [2] was 0.5 µg/mL (≈ 1.67 µM). For the same compound, the Activity [15] was 100%, the MIC50 [18] was 0.12 µg/mL (≈ 0.401 µM) and the MIC90 [18] was 1 µg/mL (≈ 3.34 µM). The Activity [27] was 83.3% and the Activity [25] was 100%.

Work on `C[C@H]1COc2c(N3CCN(C)CC3)c(F)cc3c(=O)c(C(=O)O)cn1c23.C[C@H]1COc2c(N3CCN(C)CC3)c(F)cc3c(=O)c(C(=O)O)cn1c23.O` [LEVOFLOXACIN] yielded an Activity [5] of 75.2%, an MIC50 [1] of 16 µg/mL and an MIC90 [1] of 64 µg/mL. The Activity [7] was 85.4%, the Activity [28] was 21.9% and the MIC50 [2] was 8 µg/mL. The MIC90 [2] was 32 µg/mL, the Activity [16] was 20% and the Activity [19] was 23.8%. It also gave an Activity [20] of 14.3%, an MIC50 [3] of at most 0.03 µg/mL and an MIC90 [3] of 8 µg/mL.

With `C[C@@H](O)[C@H]1C(=O)N2C(C(=O)O)=C(S[C@@H]3CN[C@H](C(=O)N(C)C)C3)[C@H](C)[C@H]12` [MEROPENEM] the MIC50 [1] was 0.03 µg/mL (≈ 0.0782 µM), the MIC90 [1] was 0.25 µg/mL (≈ 0.652 µM) and the Activity [8] was 81.3%. For the same compound, the Activity [11] was 62.5%, the Activity [14] was 91.7% and the MIC50 [2] was at most 0.03 µg/mL. For the same compound, the MIC90 [2] was 0.12 µg/mL (≈ 0.313 µM), the Activity [17] was 100% and the MIC50 [18] was at most 0.03 µg/mL. The MIC90 [18] was 0.06 µg/mL (≈ 0.156 µM), the Activity [21] was 85% and the Activity [23] was 77.9%.
